Results from US10544112B2, “Identification of ebsulfur analogues with broad-spectrum antifungal activity” (priority 2017, dated 2020).
In brackets after ≈: the same amount, converted by molar mass.

Columns and labels:
Candida strains (A-J) = experiment: Antifungal MIC, summary over panel of Candida strains; type: cell-based
Method: Fungal MIC determination experiments were performed using untreated 96-well plates (Corning). Cells were counted either by using a hemocytometer (Hausser Scientific, Horsham, Pa., USA) or by measuring optical density at attenuance of 600 nm (OD600) by using a Genesys 20 spectrophotometer (Thermo Scientific, Waltham, Mass., USA). Spectrophotometric and colorimetric measurements in 96-well plates were performed using a SpectraMax M5 spectrometer (Molecular Devices, Sunnyvale, Calif., USA).
Yeast strains Candida albicans ATCC 10231 (strain A), C. albicans ATCC 64124 (strain B), and C. albicans ATCC MYA-2876(S) (strain C) were kindly provided by Dr. Jon Y. Takemoto (Utah State University, Logan, UT, USA). C. albicans ATCC MYA-90819(R) (strain D), C. albicans ATCC MYA-2310(S) (strain E), C. albicans ATCC 1237(R) (strain F), C. albicans ATCC MYA-1003(R) (strain G), Candida glabrata ATCC 2001 (strain H), Candida krusei ATCC 6258 (strain I), and Candida parapsilosis ATCC 22019 (strain J) were obtained from the American Type Culture Collection (ATCC, Manassas, Va., USA). The (S) and (R) indicate that ATCC reports these strains to be susceptible (S) and resistant (R) to ITC and FLC. The filamentous fungal strains Aspergillus flavus ATCC MYA-3631 (strain K), and Aspergillus terreus ATCC MYA-3633 (strain M) were also obtained from the American Type Culture Collection (ATCC, Manassas, Va., USA). Aspergillus nidulans ATCC 38163 (strain L) was kindly provided by Dr. Jon S. Thorson (University of Kentucky, Lexington, Ky., USA), respectively. Yeast strains were cultured at 35° C. Filamentous fungal strains were cultured at 25° C. and the spores were harvested. All fungal strains were cultured in RPMI 1640 medium (catalog # R6504, Sigma-Aldrich Chemical Co., St. Louis, Mo.) buffered to pH 7.0 with 0.165 M morpholinepropanesulfonic acid (MOPS) buffer (Sigma-Aldrich Chemical Co.).
The MIC values against fungal strains were determined based on a previously published protocol. MIC values for ebsulfur (2a) analogues against fungal cells were evaluated in 96-well plates as described in the CLSI document M27-A3 with minor modifications. […] Therefore, potato dextrose broth (PDB) was used to grow the yeast inocula of all strains tested, which were later diluted in RPMI 1640 medium to perform determination of MIC values. […] The tested compounds (10 mg/mL) were diluted to the working stocks (500 μg/mL) by addition of DMSO. Two-fold serial dilution of the working stocks was prepared by addition of RPMI 1640 medium (100 μL) and cell suspension (100 μL) to 96-well microtiter plate to achieve final drug and inoculum concentrations ranging from 12.5-0.02 μg/mL and 5×10^3 CFU/mL, respectively. Plates were incubated for 48 h at 35° C. […]

[1] = test system: C. albicans ATCC 90819(R) (strain D); experiment: microbe, parasite or virus in culture; type: cell-based, Candida albicans; conditions: strain D; compounds 1-4n and AmB; 48 h, RPMI 1640
In short: (§1)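 A modified CLSI M27-A3 protocol is used, with final compound levels from 12.5 to 0.02 μg/mL in two-fold steps. Cells are incubated at 5×10^3 CFU/mL in buffered RPMI 1640 at 35° C for 48 h.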

[2] = test system: C. albicans ATCC 64124 (strain B); experiment: microbe, parasite or virus in culture; type: cell-based, Candida albicans; conditions: strain B; compounds 1-4n and AmB; 48 h, RPMI 1640
In short: as §1

[3] = test system: C. albicans ATCC MYA-1237(R) (strain F); experiment: microbe, parasite or virus in culture; type: cell-based, Candida albicans; conditions: strain F; compounds 1-4n and AmB; 48 h, RPMI 1640
In short: as §1

[4] = test system: C. albicans ATCC MYA-1003(R) (strain G); experiment: microbe, parasite or virus in culture; type: cell-based, Candida albicans; conditions: strain G; compounds 1-4n and AmB; 48 h, RPMI 1640
In short: as §1

[5] = test system: Candida albicans ATCC 10231 (strain A); experiment: Antifungal MIC determination (CLSI M27-A3, 96-well); type: cell-based; conditions: strain A; compounds 1-4n and AmB; 48 h, RPMI 1640
In short: as §1

[6] = test system: Candida parapsilosis ATCC 22019 (strain J); experiment: as above; type: cell-based; conditions: strain J; compounds 1-4n and AmB; 48 h, RPMI 1640
In short: as §1

[7] = test system: Candida krusei ATCC 6258 (strain I); experiment: as above; type: cell-based; conditions: strain I; compounds 1-4n and AmB; 48 h, RPMI 1640
In short: as §1

[8] = test system: Candida glabrata ATCC 2001 (strain H); experiment: as above; type: cell-based; conditions: strain H; compounds 1-4n and AmB; 48 h, RPMI 1640
In short: as §1

J774A.1 cell line = conditions: for cell death: J774, 10 μg/mL, 24 h
Method: The human embryonic kidney cell line HEK-293 (ATCC CRL-1573) and the murine macrophage cell line J774A.1 (ATCC TIB-67) were kindly provided by Dr. Matthew S. Gentry and Dr. David J. Feola (University of Kentucky, Lexington, Ky., USA), respectively. The HEK-293 cell line was grown in Dulbecco's Modified Eagle's Medium (DMEM) (ATCC, Manassas, Va., USA) with 10% fetal bovine serum (FBS) (ATCC, Manassas, Va., USA) and 1% Pen/Strep (ATCC, Manassas, Va., USA). The J774A.1 cell line was grown under the same conditions, except that the medium used was a different type of DMEM (catalog #30-2002, ATCC, Manassas, Va., USA). The HEK-293 cell line was passaged by trypsinization with 0.05%-trypsin-0.53 mM EDTA (ATCC, Manassas, Va., USA). The J774A.1 cell line was passaged mechanically by cell scrapers (ATCC, Manassas, Va., USA). Cell confluency was observed by using a Nikon Eclipse TS100 microscope (Minato, Tokyo, Japan).
Mammalian cytotoxicity assays were performed as previously described with minor modifications (FIG. 4). The HEK-293 and J774A.1 cell lines were grown in various Dulbecco's Modified Eagle's Medium (DMEM) with 10% fetal bovine serum (FBS) and 1% Pen/Strep at 37° C. with 5% CO2. The confluent cells were either trypsinized with 0.05%-trypsin-0.53 mM EDTA (HEK-293 cell line) or mechanically removed by cell scrapers (J774A.1 cell line). […] The cells were incubated with tested compounds for another 24 h at 37° C. with 5% CO2. Cell survival was assessed by resazurin assay. Each well was treated with resazurin (10 μL of a 25 mg/L solution) for 6 h. […] Dead cells remain purple/blue. The percentage of survival rate was calculated by using the following formula: [(test value)/(control value)×100].

| Structure (SMILES) | MIC values against Candida strains, range (Candida strains (A-J); Candida strains A-J) [µg/mL] | MIC-0 [1] [µg/mL] | MIC-0 [2] [µg/mL] | MIC-0 [3] [µg/mL] | MIC-0 [4] [µg/mL] | MIC-0 [5] [µg/mL] | MIC-0 [6] [µg/mL] | MIC-0 [7] [µg/mL] | MIC-0 [8] [µg/mL] | concentration without any toxicity (J774A.1 cell line; J774, 24 h) | MIC values against clinically relevant Candida strains (Candida strains (A-J)) [µg/mL] | fold more active than AmB (Candida strains (A-J); anti-Candida) | fold more potent in MIC values than FLC (Candida strains (A-J); anti-Candida, except against strain J) | cell death (J774A.1 cell line) |
| --- | --- | --- | --- | --- | --- | --- | --- | --- | --- | --- | --- | --- | --- | --- |
| CC(C)(C)n1sc2ccccc2c1=O [Compound 3g] | 0.78 to 3.13 | 1.56 (≈ 7.53 µM) | 1.56 (≈ 7.53 µM) | 1.56 (≈ 7.53 µM) | 1.56 (≈ 7.53 µM) | 0.78 (≈ 3.76 µM) | 1.56 (≈ 7.53 µM) | 0.78 (≈ 3.76 µM) | 1.56 (≈ 7.53 µM) | up to 5 μg/mL |  |  |  |  |
| CCCCCn1sc2ccccc2c1=O [Compound 3a] |  | 1.56 (≈ 7.05 µM) | 0.39 (≈ 1.76 µM) | 0.78 (≈ 3.52 µM) | 0.78 (≈ 3.52 µM) | 1.56 (≈ 7.05 µM) | 0.78 (≈ 3.52 µM) | 0.78 (≈ 3.52 µM) | 1.56 (≈ 7.05 µM) |  | 0.78 (≈ 3.52 µM) | 1.25- to 10 fold | 20- to 320 fold | approximately 50% |
| CCCCCCn1sc2ccccc2c1=O [Compound 3b] |  | 1.56 (≈ 6.63 µM) | 1.56 (≈ 6.63 µM) | 1.56 (≈ 6.63 µM) | 0.78 (≈ 3.31 µM) | 1.56 (≈ 6.63 µM) | 0.78 (≈ 3.31 µM) | 0.78 (≈ 3.31 µM) | 1.56 (≈ 6.63 µM) |  | 0.78 (≈ 3.31 µM) |  |  | approximately 50% |
